Reference: the METLIN SMRT retention time set (Domingo-Almenara et al. 2019)

Experiment: gradient 5% acetonitrile 3 min, to 50% in 2 min, to 85% in 15 min, held 3 min, 100 µL/min
Settings: column: Zorbax Extend-C18 2.1 x 50 mm; eluents: water / acetonitrile, 0.1% formic acid
How it was run: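 The system's dead and dwell volumes were 40 μL and 900 μL, with a Zorbax Extend-C18 column (2.1 × 50 mm, 1.8 μm) run at 100 μL/min in water and acetonitrile containing 0.1% formic acid each. Pure standards were analyzed in mixtures of ~100 molecules by HPLC–quadrupole time-of-flight mass spectrometry in positive and negative ionization mode. Retention time was assigned from computationally picked, manually inspected adduct peaks.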

RP-LC retention time [s]	SMILES
565	CC(C)N1C(=O)C(C)N(C(=O)NCCN(C)C)c2cccnc21 (centres undefined)
669	Cc1ccc2c(c1)N(C)N=C(C(=O)N1CCOCC1)S2(=O)=O
1070	Cc1ccccc1NC(=O)N1CCN(c2nc3ccccc3nc2C(F)(F)F)CC1
771	O=C1C(c2cccnc2)N(CC2CCCCC2)C(=O)CN1c1ccccc1 (centres undefined)
591	Cc1cccc2nnc(N3CCC(C(=O)NCc4ccccc4F)CC3)n12
987	N#Cc1cccc(S(=O)(=O)N2CCc3nc(-c4ccccc4)ncc3C2)c1
869	Cc1cc2c(=O)n(CC(=O)Nc3ccc(Br)cc3F)ccc2s1
782	COc1ccc(-c2noc(-c3ccc(NCC4CCCO4)nn3)n2)cc1 (centres undefined)
897	O=C(Cn1cccc1-c1nnc(-c2ccccc2)o1)Nc1ccc2c(c1)OCCO2
584	Cn1c(=O)c2cc(C(=O)NCCc3ccncc3)nn2c2ccccc21
744	CCOc1cc2c(cc1OCC)C1C(C(=O)NCCOC)c3ccccc3C(=O)N1CC2 (centres undefined)
645	COc1ccc(CCC(=O)N2CCN(c3cc(C)c4ccccc4n3)CC2)cc1OC
678	Cc1cc2n(n1)CCCN2C(=O)CCC(=O)N1CCN(c2ccccc2)CC1
1110	O=C(c1ccccc1Br)N1CCc2nc(-c3ccc(Cl)cc3)ncc2C1
917	Cc1oc(C2CCN(S(=O)(=O)CCc3ccccc3)CC2)nc1C(=O)N1CCCC1
807	O=S(=O)(c1ccccc1F)N1CCN(Cc2cccc(F)c2)C2(CCOCC2)C1
678	CCc1nc(-c2csc(S(=O)(=O)N3CCCC(C(=O)Nc4cccnc4)C3)c2)no1 (centres undefined)
566	COc1ccccc1CN1CCC(CNS(=O)(=O)c2ccc3c(c2)CCCC(=O)N3)CC1
883	Cc1ccc(-c2nccn3cc(C(=O)NC(C)C)nc23)cc1
677	CCN1CCN(c2cc(C)nc3nc(-c4ccc(C(C)(C)C)cc4)nn23)CC1
674	CNC(=O)c1ccc(-c2nc3cc(NS(=O)(=O)c4ccc(F)c(Cl)c4)ccc3n2C)cc1
814	Cn1c(N2CCC(C(=O)N3CCN(c4cccc(C(F)(F)F)c4)CC3)CC2)cc(=O)n(C)c1=O

RP-LC retention time [s]	SMILES
772	Cc1nn(-c2nc(-c3ccc(F)cc3)cs2)c(C)c1CC(=O)Nc1cccc(Cl)c1
968	O=C(CSc1ccc(Cl)cc1)Nc1nnc(-c2cccc([N+](=O)[O-])c2)s1
864	CC1CCN(c2nc(C(=O)N(C)c3ccccc3)nc3c2cnn3C)CC1
787	CCC(C)C(NC(=O)c1cc(F)cc(F)c1)C(=O)Nc1nc2ccccc2[nH]1 (centres undefined)
854	Brc1cccc(-c2nnc(Cc3nc(-c4ccncc4)no3)o2)c1
625	CCCNC(=O)c1c2c(nc3ccc(C)cc13)CCC2
585	CCN(CC)CCNC(=O)CCc1nc2c(C)nn(-c3ccccc3)c2n(C)c1=O
727	CC(C)CCNC(=O)C1(C)Cn2nc(C(=O)NCc3ccc(F)cc3)cc2C(=O)N1C (centres undefined)
961	Cc1ccc(CNC(=O)C2(C)CN(S(C)(=O)=O)CC(=O)N2CCc2ccc(Cl)cc2)cc1 (centres undefined)
831	CCc1cc(=O)n(CC(=O)Nc2cccc(Br)c2)c(N2CCOCC2)n1
686	Cc1cc(C(=O)Nc2ccc3c(c2)CCC(=O)N3C)no1
703	CCOc1ccc2nc(NS(=O)(=O)c3ccc4c5c(cccc35)C(=O)N4)sc2c1
1130	O=C(Cc1cccs1)N1CCc2c([nH]c3ccccc23)C1c1ccc(F)cc1 (centres undefined)
823	CCOC(=O)c1c(C)[nH]c(CCC(=O)NC2CCCCC2)c1C
864	N#Cc1ccc(C(=O)N2CCOc3ccccc32)cc1
750	CC1(C(=O)NCc2ccccc2)CN(S(C)(=O)=O)CC(=O)N1c1ccc(F)cc1 (centres undefined)
647	CN(C)c1nc2ncn3c(=O)n(CC(=O)NC4CCCC4)nc3c2s1
666	CS(=O)(=O)N1CCN(C(=O)CCc2csc(NC(=O)c3ccc(F)cc3)n2)CC1
758	CCNC(=O)c1ccc(-n2nc(C)c(C)c2C)nc1
643	COc1cccc(-c2nc(-c3ccc4c(c3)ncn4CCN3CCCC3)no2)c1OC
744	O=C(Cn1c(=O)c2nncn2c2ncccc21)N1CCN(c2ccc(Cl)cc2)CC1
762	Cc1cccc(Nc2c(-c3nc(C)no3)cnc3nc(C)ccc23)c1

RP-LC retention time [s]	SMILES
995	CCCS(=O)(=O)N1CCc2ccc(NC(=O)Nc3cc(Cl)ccc3OC)cc2C1
1130	CCN(CC)CCn1c(NCc2ccccc2OC)nc2ccccc21
749	Cn1c(=O)n(CC(=O)O)c(=O)c2c1nc1n2CCCN1c1ccc(Cl)cc1
734	COc1ccc(Cn2nc3c(S(=O)(=O)N4CCOCC4)cccn3c2=O)cc1
619	O=C(Cc1ccsc1)Nc1ccc2c(N3CCOCC3)ncnc2c1
728	Cc1ccc(NC(=O)N2CCCC2c2c(C)noc2C)cc1 (centres undefined)
607	CCOC(=O)c1[nH]c(C)c(CCC(=O)N2CCC(C(=O)NCCCN3CCCCC3)CC2)c1C
560	O=C(CC1CCCC1)N1CCN(CCn2cccn2)CC1
594	CCN(CC)C(=O)c1ccc2c(c1)N(CC(=O)NCc1ccccn1)C(=O)CO2
681	O=C(Nc1cccs1)N1CC(c2nc(C3CC3)no2)C1
740	COc1ccc(OC)c(NC(=O)N2CCC3(CC2)NC(=O)c2ccccc2O3)c1
807	O=C(Cc1nnc(-c2ccc3ncccc3c2)o1)NC1CCCCCC1
560	Cc1nccn1-c1ccc(N2CCN(C(=O)c3cc4ccccc4o3)CC2)nn1
612	Cc1cnc(CC2CCN(C(=O)Nc3ccc4c(c3)OCCO4)C2)n1C1CC1 (centres undefined)
1320	CCOc1ccc(C2Cn3nnc(-c4nc(-c5cccc(Cl)c5)no4)c3CO2)cc1 (centres undefined)
738	CCc1ccccc1NC(=O)C1CCc2sc(C(=O)N(C)C)cc2C1 (centres undefined)
600	CCOc1ccc2nc(C(=O)N3CCN(c4ccccn4)CC3)cn2n1
780	CCOC(=O)c1[nH]c(C)c(CCC(=O)NCc2ccc3c(c2)OCO3)c1C
831	O=C(NCc1ccc2c(c1)OCO2)c1nn(-c2ccccc2)c2ccccc2c1=O
848	COc1ccc(C(O)Cn2ccn3nc(-c4cccs4)cc3c2=O)cc1 (centres undefined)
529	CCC(=O)NCc1nc2c(n1CC)CN(S(=O)(=O)c1cccc(F)c1)CC2
612	OC1(Cc2ccccc2)CCNCC1

RP-LC retention time [s]	SMILES
916	CCc1nn(C)c(=O)c2cc(S(=O)(=O)NCc3ccc(F)cc3Cl)cn12
778	Cc1cccc(-c2ncccc2CNS(=O)(=O)c2ccc(Cl)cc2)c1
921	CCN1C(=O)c2ccccc2Oc2ccc(C(=O)NCc3cccc(OC)c3)cc21
1030	COc1cc([N+](=O)[O-])ccc1NC(=O)c1cccc(Br)c1
1310	O=C(NCCC1=CCCCC1)C1CCCN(c2nc3ccccc3n(Cc3ccccc3)c2=O)C1 (centres undefined)
826	CCS(=O)(=O)c1nc2ccc(NS(=O)(=O)c3ccc4c(c3)OCCO4)cc2s1
774	O=C(NCc1cccc(F)c1)N1CCC(n2c(-c3ccco3)nc3cccnc32)C1 (centres undefined)
820	Cc1nc(Cn2cccc2C(=O)Nc2ccccc2)no1
918	Cc1nc(-c2noc(-c3ccc(F)cc3)n2)cn1CC(=O)Nc1cccc(Cl)c1
719	CCCC(NC(=O)c1cc(OC)cc(OC)c1)C(=O)Nc1nc2ccccc2[nH]1 (centres undefined)
712	O=S(=O)(Nc1ccc(Cl)cc1)c1ccc2nncn2c1
737	CCNC(=O)CCc1nc2ccccc2n(CC(=O)Nc2cc(OC)cc(OC)c2)c1=O
1060	Cc1cc(C)n2c(Nc3cccc(C(F)(F)F)c3)c(-c3cc(Br)ccc3O)nc2n1
695	CCn1cc(S(=O)(=O)N2CCCCC2c2nc(-c3ccncc3)n[nH]2)cn1 (centres undefined)
660	O=C(COc1ccc(F)cc1F)Nc1cccc(-c2ccc(N3CCOCC3)nn2)c1
611	Cc1cnc(C(=O)NC2C[C@H]3CC[C@@H](C2)N3C(=O)Cc2c(C)noc2C)cn1 (some centres undefined)
848	CCS(=O)(=O)N1CC(=O)N(c2cccc(C)c2C)C(C)(C(=O)NCc2ccc(F)cc2)C1 (centres undefined)
1040	CCc1ccc(NC(=O)c2cn(C)nc2S(=O)(=O)N2CCSCC2)cc1
720	N#Cc1cccc(N2C=C(C(=O)N3CCCC3)S(=O)(=O)c3ccccc32)c1
1280	Cc1ccc(-c2noc(Cn3ncn4nc(-c5ccc(Br)cc5)cc4c3=O)n2)cc1
1100	CN(C(=O)Cn1cccc1-c1nc(-c2ccccc2)no1)c1ccccc1
830	O=C(Cn1ccn2nc(-c3ccccc3)c(CO)c2c1=O)Nc1ccccc1C(F)(F)F

SMILES	RP-LC retention time [s]
O=C(NCc1ccccc1)N1[C@H]2CC[C@@H]1c1cnc(-c3ccccc3)nc1C2	865
